From ChEMBL document CHEMBL5137058, “Therapeutic Strategies to Target the Androgen Receptor” (J Med Chem, 2022)

Assays:
[1] = molecular target: T1, Androgen receptor (Homo sapiens, UniProt P10275); experiment: Binding affinity to human Androgen receptor
T1 sequence (P10275 whole entry): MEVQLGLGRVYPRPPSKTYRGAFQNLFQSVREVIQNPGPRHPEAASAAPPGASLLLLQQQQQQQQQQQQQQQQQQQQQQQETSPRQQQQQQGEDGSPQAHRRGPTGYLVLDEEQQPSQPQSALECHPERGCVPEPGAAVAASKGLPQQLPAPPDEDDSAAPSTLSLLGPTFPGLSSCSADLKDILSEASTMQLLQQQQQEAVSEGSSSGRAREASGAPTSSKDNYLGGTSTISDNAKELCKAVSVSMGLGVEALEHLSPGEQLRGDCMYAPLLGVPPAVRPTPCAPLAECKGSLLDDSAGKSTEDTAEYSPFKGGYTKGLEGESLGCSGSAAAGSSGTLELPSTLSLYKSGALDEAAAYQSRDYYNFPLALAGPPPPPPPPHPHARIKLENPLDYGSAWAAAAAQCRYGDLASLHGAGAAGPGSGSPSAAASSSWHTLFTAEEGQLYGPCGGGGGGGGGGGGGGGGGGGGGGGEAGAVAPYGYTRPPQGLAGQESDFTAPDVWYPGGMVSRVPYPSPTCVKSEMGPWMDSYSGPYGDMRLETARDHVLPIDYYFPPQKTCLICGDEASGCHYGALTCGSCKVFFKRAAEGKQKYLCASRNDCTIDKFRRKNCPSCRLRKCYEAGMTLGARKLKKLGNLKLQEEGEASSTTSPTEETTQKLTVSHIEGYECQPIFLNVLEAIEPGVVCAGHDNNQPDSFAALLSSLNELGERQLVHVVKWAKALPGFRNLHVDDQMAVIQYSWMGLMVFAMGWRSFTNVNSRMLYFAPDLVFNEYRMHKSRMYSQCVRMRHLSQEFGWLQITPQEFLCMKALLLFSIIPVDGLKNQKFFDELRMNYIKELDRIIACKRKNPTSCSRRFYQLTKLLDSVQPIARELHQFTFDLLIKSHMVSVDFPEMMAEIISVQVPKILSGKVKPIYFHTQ

[2] = molecular target: T1, Androgen receptor; experiment: Agonist activity to human Androgen receptor in African green monkey COS-7 cells measured by luciferase reporter assay; type: cell-based
[3] = molecular target: T2, Androgen receptor (Homo sapiens) (UniProt P10275); experiment: Agonist activity at androgen receptor (unknown origin) at 1 uM relative to control; details: filed as agonist
T2 sequence (whole entry): T1 sequence (P10275 whole entry)

[4] = system: LNCaP; experiment: Antiproliferative activity against human LNCaP cells; type: functional, cell-based
[5] = molecular target: GABA-A receptor; anion channel; experiment: Binding affinity to GABA A receptor (unknown origin); type: protein-complex assay, Homo sapiens
[6] = In vivo agonist activity at Androgen receptor in male rat assessed as increase in levator ani muscle weight at 2 mg/kg, po administered for 5 days; type: functional; details: time 5 day
[7] = In vivo agonist activity at Androgen receptor in male rat assessed as increase in prostate weight at 2 mg/kg, po administered for 5 days; type: functional; details: time 5 day
[8] = molecular target: T1, Androgen receptor; experiment: Antagonist activity at Androgen receptor in human LNCaP cells measured by SEAP reporter gene assay; type: cell-based
[9] = molecular target: T1, Androgen receptor; experiment: Displacement of [3H]DHT from Androgen receptor expressed in human MDA-MB-453 cells; type: cell-based
[10] = molecular target: T1, Androgen receptor; experiment: Antagonist activity at Androgen receptor in human MDA-MB-453 cells measured by SEAP reporter gene assay; type: cell-based
[11] = In vivo antagonist activity at Androgen receptor assessed as reduction in wax ester in golden hamster ear model; type: functional, Cricetinae; set-up: concentration or dose not given beside the values
[12] = molecular target: T1, Androgen receptor; experiment: Antagonist activity at Androgen receptor in human MDA-kb2 cells; type: cell-based
[13] = system: Rattus norvegicus; experiment: Anti-androgenic activity in testosterone-treated castrated rat assessed as reduction in prostate weight at 2 mg administered orally per day for 5 days; type: functional; set-up: Activity: scale not given: the % may be the effect or the level left; details: route po, time 5 day; for Activity: at 2 mg
[14] = molecular target: T2, Androgen receptor (Homo sapiens); experiment: Induction of degradation of Androgen receptor in human LNCaP cells; type: cell-based
[15] = molecular target: T2, Androgen receptor (Homo sapiens); experiment: Agonist activity at human Androgen receptor expressed in human MDA-MB-453 cells cotransfected with MMTV-Luc assessed as transactivation modulation of AR measured by luciferase reporter assay relative to control; type: cell-based; details: filed as agonist
[16] = molecular target: T1, Androgen receptor; experiment: Agonist activity at human Androgen receptor expressed in human MDA-MB-453 cells cotransfected with MMTV-Luc assessed as transactivation modulation of AR measured by luciferase reporter assay; type: cell-based
[17] = molecular target: T1, Androgen receptor; experiment: Displacement of [3H]methyltrienolone from Androgen receptor expressed in human MDA-MB-453 cells; type: cell-based
[18] = Antiproliferative activity against refractory human prostate cancer cells; type: functional, cell-based; details: Prostate tumor cell line
[19] = system: Rattus norvegicus; experiment: Anti-androgenic activity in male Wistar rat assessed as decrease in ventral prostate weight at 10 mg/kg, po administered for 15 days; type: functional; set-up: Activity: scale not given: the % may be the effect or the level left; details: time 15 day
[20] = molecular target: T1, Androgen receptor; experiment: Binding affinity to human Androgen receptor measured by fluorescence polarization assay
[21] = molecular target: Androgen receptor (Mus musculus, UniProt P19091); experiment: Agonist activity at Androgen receptor (unknown origin) transfected in mouse C2C12 cells measured by luciferase reporter assay; type: cell-based
[22] = molecular target: T3, Protein cereblon/Androgen receptor/Cullin-4A (Homo sapiens, UniProt P10275+Q96SW2+Q13619); experiment: Protac activity at CRBN/Cullin 4A/Androgen receptor in human VCaP cells assessed as Androgen receptor degradation; type: cell-based
[23] = molecular target: T3, Protein cereblon/Androgen receptor/Cullin-4A; experiment: Protac activity at CRBN/Cullin 4A/Androgen receptor in human LNCaP cells assessed as Androgen receptor degradation; type: cell-based
[24] = Oral bioavailability in mouse; type: ADME, organism-based; details: in vivo

T3 sequence (Q96SW2 whole entry, one chain of several): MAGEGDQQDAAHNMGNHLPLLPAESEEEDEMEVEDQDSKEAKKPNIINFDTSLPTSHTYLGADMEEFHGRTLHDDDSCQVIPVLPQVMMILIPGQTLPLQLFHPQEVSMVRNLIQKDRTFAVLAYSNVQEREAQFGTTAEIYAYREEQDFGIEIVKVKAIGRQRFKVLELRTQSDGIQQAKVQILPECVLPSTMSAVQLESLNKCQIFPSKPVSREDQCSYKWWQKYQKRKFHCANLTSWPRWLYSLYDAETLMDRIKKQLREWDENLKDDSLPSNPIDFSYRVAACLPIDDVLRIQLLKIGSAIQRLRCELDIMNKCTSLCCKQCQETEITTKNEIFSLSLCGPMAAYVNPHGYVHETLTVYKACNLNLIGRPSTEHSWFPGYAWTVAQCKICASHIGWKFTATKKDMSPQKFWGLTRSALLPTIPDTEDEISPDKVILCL
T3 sequence (Q13619 whole entry, one chain of several): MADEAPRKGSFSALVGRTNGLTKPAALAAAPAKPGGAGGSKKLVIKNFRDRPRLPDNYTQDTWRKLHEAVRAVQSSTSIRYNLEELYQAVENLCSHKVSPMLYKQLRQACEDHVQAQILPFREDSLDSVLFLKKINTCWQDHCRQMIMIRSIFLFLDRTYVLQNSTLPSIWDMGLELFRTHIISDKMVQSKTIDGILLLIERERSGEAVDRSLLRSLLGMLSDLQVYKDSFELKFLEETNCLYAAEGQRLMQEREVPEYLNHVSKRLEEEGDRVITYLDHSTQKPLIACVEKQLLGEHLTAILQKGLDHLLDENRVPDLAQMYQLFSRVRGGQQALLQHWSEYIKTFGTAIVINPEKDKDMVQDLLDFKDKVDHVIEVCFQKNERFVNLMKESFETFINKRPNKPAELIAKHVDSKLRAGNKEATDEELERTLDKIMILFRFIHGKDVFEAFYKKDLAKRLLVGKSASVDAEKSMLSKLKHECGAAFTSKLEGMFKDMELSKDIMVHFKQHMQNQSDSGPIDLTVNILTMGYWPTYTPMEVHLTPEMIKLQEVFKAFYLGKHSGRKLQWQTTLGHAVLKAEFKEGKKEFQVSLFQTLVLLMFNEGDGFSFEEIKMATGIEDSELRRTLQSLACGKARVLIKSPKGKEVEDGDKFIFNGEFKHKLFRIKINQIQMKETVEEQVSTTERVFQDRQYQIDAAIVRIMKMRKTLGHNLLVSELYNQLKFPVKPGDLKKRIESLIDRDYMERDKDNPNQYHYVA
Chain of Androgen receptor (Mus musculus, UniProt P19091) (P19091 whole entry): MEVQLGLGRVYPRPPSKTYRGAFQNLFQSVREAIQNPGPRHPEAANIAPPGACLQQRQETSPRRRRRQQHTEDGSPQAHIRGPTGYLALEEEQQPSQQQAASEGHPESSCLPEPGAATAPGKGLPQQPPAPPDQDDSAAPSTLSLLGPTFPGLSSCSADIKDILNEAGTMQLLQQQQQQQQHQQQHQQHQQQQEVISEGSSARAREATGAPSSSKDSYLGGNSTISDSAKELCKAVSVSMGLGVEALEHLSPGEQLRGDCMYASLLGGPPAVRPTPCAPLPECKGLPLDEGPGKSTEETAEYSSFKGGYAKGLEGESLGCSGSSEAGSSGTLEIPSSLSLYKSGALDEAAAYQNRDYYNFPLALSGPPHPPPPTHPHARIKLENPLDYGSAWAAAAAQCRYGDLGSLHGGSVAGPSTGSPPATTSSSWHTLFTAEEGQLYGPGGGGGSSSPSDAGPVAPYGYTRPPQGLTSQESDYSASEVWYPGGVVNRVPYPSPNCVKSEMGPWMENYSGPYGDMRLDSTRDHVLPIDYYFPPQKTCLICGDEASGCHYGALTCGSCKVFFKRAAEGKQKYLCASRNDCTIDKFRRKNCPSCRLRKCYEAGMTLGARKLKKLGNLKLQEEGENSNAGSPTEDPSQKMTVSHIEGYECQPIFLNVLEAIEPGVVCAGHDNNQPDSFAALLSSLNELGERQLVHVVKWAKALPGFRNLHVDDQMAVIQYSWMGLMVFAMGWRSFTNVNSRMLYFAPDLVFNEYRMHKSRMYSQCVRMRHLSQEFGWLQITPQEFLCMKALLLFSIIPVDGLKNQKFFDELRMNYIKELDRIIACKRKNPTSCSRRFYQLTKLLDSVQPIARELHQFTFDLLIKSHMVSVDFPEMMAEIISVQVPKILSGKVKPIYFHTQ

**Q.** Which IC50 [1] does the source give for `Cc1c(N2CC[C@](C)(O)[C@@H]2C)ccc(C#N)c1Cl` here?
**A.** 1 nM

**Q.** And the EC50 [2]?
**A.** 0.29 nM

**Q.** With `CC1(C)CN(CCC#N)C(=O)[C@@H]1Oc1ccc(C#N)c(C(F)(F)F)c1` as the molecule, how does the Activity [3] read?
**A.** 89%

**Q.** What does the source list for `CNC(=O)c1ccc(N2C(=S)N(c3ccc(C#N)c(C(F)(F)F)c3)C(=O)C2(C)C)cc1F` [ENZALUTAMIDE]?
**A.** IC50 [4]: 36 nM; IC50 [5]: 3000 nM

**Q.** For `Cc1c(/N=C2\N=C(N)N3N=C(C(F)(F)F)C[C@@]23C)ccc(C#N)c1C(F)(F)F`, which Activity [6] is on record?
**A.** 91%

**Q.** And the Activity [7]?
**A.** 36%

**Q.** With `N#Cc1ccc(N2C(=O)[C@H]3[C@@H]4C[C@@H](CN4C(=O)Oc4ccc(F)cc4)N3C2=O)cc1C(F)(F)F` as the molecule, how does the IC50 [8] read?
**A.** 3920 nM

**Q.** What about the Ki [9] of the same molecule?
**A.** 18 nM

**Q.** What about the IC50 [10] of the same molecule?
**A.** 350 nM

**Q.** For `CC(c1ccccc1)N(C)c1ccc(C#N)c(C(F)(F)F)n1` (stereo not given), which IC50 [1] is on record?
**A.** 20 nM

**Q.** What about the Activity [11] of the same molecule?
**A.** 83%

**Q.** What about the IC50 [12] of the same molecule?
**A.** 45 nM

**Q.** What does the source list for `CC(O)(c1nc2cc(Cl)c(Cl)cc2[nH]1)C(F)(F)F` (stereo not given)?
**A.** ID50 [13]: 0.32 mg/day; Activity [13]: 96%

**Q.** For `CC(O)(CS(=O)(=O)c1ccc(F)cc1)C(=O)Nc1ccc(C#N)c(C(F)(F)F)c1` (stereo not given) [BICALUTAMIDE], which IC50 [4] is on record?
**A.** 160 nM

**Q.** With `N#Cc1ccc([C@H]2CCCC[C@H]2O)cc1C(F)(F)F` as the molecule, how does the IC50 [1] read?
**A.** 26 nM

**Q.** And the Activity [11]?
**A.** 85%

**Q.** And the IC50 [12]?
**A.** 90 nM

**Q.** With `CC1(C)C(=O)N(c2ccc(C#N)c(C(F)(F)F)c2)C(=S)N1CCCC(=O)NCCOCCOC(=O)CC12CC3CC(CC(C3)C1)C2` as the molecule, how does the Activity [14] read?
**A.** > 50%

**Q.** With `CC1(C)CN(Cc2ccccc2)C(=O)[C@@H]1Oc1ccc(C#N)c(C(F)(F)F)c1` as the molecule, how does the Activity [11] read?
**A.** 78%

**Q.** Which Activity [15] does the source give for `CN1C(=O)C(F)=C[C@]2(C)[C@H]3CC[C@]4(C)[C@@H](O)/C(=C/c5cncnc5)C[C@H]4[C@@H]3CC[C@@H]12` here?
**A.** 141%

**Q.** What about the EC50 [16] of the same molecule?
**A.** 17 nM

**Q.** And the IC50 [17]?
**A.** 59 nM

**Q.** For `COc1cc(N2C(=O)C(C)(C)c3cc(-c4cccnc4OC)ccc32)ccc1C#N`, which IC50 [18] is on record?
**A.** 79.6 nM

**Q.** With `Fc1ccc(Cn2c(CC(F)(F)F)nc3cc(Cl)c(Cl)cc32)cc1` as the molecule, how does the ID50 [13] read?
**A.** 0.13 mg/day

**Q.** What about the Activity [13] of the same molecule?
**A.** 84%

**Q.** With `N#Cc1ccc(-c2ccccc2O)cc1C(F)(F)F` as the molecule, how does the Activity [11] read?
**A.** 86%

**Q.** And the IC50 [12]?
**A.** 0.2 nM

**Q.** For `N#Cc1ccc(-n2c(=O)n(Cc3ccccc3)c3ccccc32)cc1C(F)(F)F`, which IC50 [18] is on record?
**A.** 170 nM

**Q.** With `CN1C(=O)C(F)=C[C@]2(C)[C@H]3CC[C@]4(C)[C@@H](C(=O)NCc5nc6cccnc6[nH]5)CC[C@H]4[C@@H]3CC[C@@H]12` [MK-0773] as the molecule, how does the IC50 [17] read?
**A.** 6.6 nM

**Q.** What does the source list for `CCCCc1ccc(OC(=O)N2C[C@@H]3C[C@H]2[C@@H]2C(=O)N(c4ccc([N+](=O)[O-])c5ccccc45)C(=O)N32)cc1`?
**A.** IC50 [8]: 4750 nM; Ki [9]: 73 nM; IC50 [10]: 60 nM

**Q.** With `C[C@@H]1CC[C@H]([C@@H](O)C(F)(F)F)N1c1ccc2[nH]c(=O)cc(C(F)(F)F)c2c1` [LGD-2941] as the molecule, how does the Ki [1] read?
**A.** 6.5 nM

**Q.** With `C[C@@H]1CN(c2ccc(C#N)c(C(F)(F)F)c2)[C@@H](C)CN1C(=O)Nc1ccc(C(F)(F)F)nc1` as the molecule, how does the ED50 ([19]; Rattus norvegicus, Wistar, 360 h) read?
**A.** 2.2 mg/kg/day

**Q.** What about the Activity ([19]; dose 10 mg/kg) of the same molecule?
**A.** 67%

**Q.** Which Ki [20] does the source give for `Cc1c(N[C@@H](c2ccc(-c3ccc(C#N)cc3)o2)[C@H](C)O)ccc(C#N)c1Cl` here?
**A.** 7 nM

**Q.** Which EC50 [21] does the source give for `CO[C@@H]1C(c2ccc(C#N)c(Cl)c2C)=NN2CC[C@H](O)[C@@H]12` here?
**A.** 0.5 nM

**Q.** With `CC(C)N1C[C@@]2(C)O[C@](C)(C1)[C@H]1C(=O)N(c3ccc(C#N)c(C(F)(F)F)c3)C(=O)[C@H]12` as the molecule, how does the IC50 [8] read?
**A.** 125 nM

**Q.** What about the Ki [9] of the same molecule?
**A.** 14 nM

**Q.** What about the IC50 [10] of the same molecule?
**A.** 32 nM

**Q.** With `CN(c1ccc(C#N)c(Cl)c1)[C@H]1CC[C@H](NC(=O)c2ccc(N3CCN(C4CN(c5ccc6c(c5)C(=O)N(C5CCC(=O)NC5=O)C6=O)C4)CC3)cc2)CC1` (stereo not given in full) as the molecule, how does the DC50 [22] read?
**A.** < 0.1 nM

**Q.** And the DC50 [23]?
**A.** < 0.1 nM

**Q.** And the bioavailability [24]?
**A.** 51%
